This is an account of results in patent US7537911B2, “ATM related kinase, ATX, nucleic acids encoding same and methods of use” (Burnham Institute for Medical Research, priority 2002, dated 2009).

pIC50: −log10 of the molar value.

The test system of one data set is p53. The data set is described as follows: p53 Ser-15 phosphorylation and p53 accumulation (immunoblot). In kind it is cell-based, human. An excerpt:
A major mediator of stress-induced signaling in mammalian cells is the tumor suppressor protein, p53 (Ko and Prives, Genes and Development 10:1054-1072, (1996); Ryan et al., Curr. Opin. Cell Biol. 13:332-337 (2001)). ATX phosphorylates p53 on Ser-15 (FIG. 1C), a site implicated in the regulation of p53 stability and transcriptional activity (Dumaz and Meek, Curr. Opin. Cell Biol. 13:225-231 (1999); Zhang and Xiong, Science 292:1910-1915 (2001)). Therefore, the possibility that these two proteins are functionally linked during cellular stress responses was investigated. U2OS cells were transiently transfected with a HA-ATXWT or HA-ATXKI expression plasmid, together with a GFP-encoding plasmid to allow for FACS-based enrichment of the transfected cells. The GFP+ cells were then examined for IR-induced stabilization of p53, as well as for specific phosphorylation of this protein on Ser-15. […] In contrast, overexpression of ATXWT enhanced both of these responses in cells exposed to IR.
The recognition of UV light-induced DNA damage occurs primarily during S phase, when pyrimidine dimers and other bulky lesions interfere with replication fork progression (Friedberg, DNA Repair and Mutagenesis (Washington, D.C., ASM Press) (1995); Lindahl and Wood, Cell 103:1121-1131 (1999)).
In order to further define the potential linkage between DNA replicational stress and ATX, the response of AS-treated cells to 5-fluorouracil (5-FU), an S-phase specific cytotoxic agent was examined (Danenberg et al., Seminars in Oncology. 26:621-631 (1999); Grem, Investigational New Drugs 18:299-313 (2000)).
Changes in phosphorylation at Ser-15 are typically accompanied by alterations in the expression of the p53 protein, which complicates the interpretation of results obtained by immunoblotting of whole cell extracts with phospho-Ser-15-specific antibodies. In order to confirm that reduced ATX expression interferes with stress-induced Ser-15 phosphorylation, U2OS cells were transfected with either the S or AS oligonucleotide, and then were pretreated with the proteasome inhibitor, LLnV, to stabilize p53. In the presence of LLnV, the p53 level in each test population was relatively unaffected by UV exposure (data not shown). However, the ratio of phospho-Ser-15 to total p53 protein was increased by UV irradiation of both the mock-transfected and S oligonucleotide-treated cells.

For data set [1], the target named is T1, ATX (Homo sapiens, UniProt Q96Q15).
T1 construct: expressed in transfected cells; host or cells: HEK 293T, pcDNA3.1, immunoprecipitated with anti-HA antibody
As to the kind of experiment: Immune complex kinase assay, immunoprecipitated HA-ATXWT, GST-p53 1-70 substrate. The settings on record: pretreatment of immunoprecipitated HA-ATXWT; GST-p53 1-70 phosphorylation; read-out: drug concentration required for 50% inhibition (IC50) of ATX activity in vitro. In kind it is biochemical.

For data set [2], the system named is U2OS cells. The data set is described as follows: Clonogenic survival assay of oligonucleotide-transfected cells. In kind it is cell-based, human. To be noted: for reduction of basal level of colony outgrowth (basal clonogenic activity): non-irradiated, 10 days in culture.
In data set [3] the test system is U2OS cells. The data set is described as follows: Cell-cycle distribution by flow cytometry. In kind it is cell-based, human. The settings on record: for cell-cycle distribution after IR exposure: 24 h post-irradiation.
Protocol: To test this possibility, U2OS cells were pre-treated with S or AS oligonucleotides, exposed to IR, and cell-cycle distributions at 24 h post-irradiation were determined.
In data set [4] the test system is ATX. As to the kind of experiment: ATX protein level in oligonucleotide-treated cells (immunoblot). Type of data set: cell-based, human. To be noted: U2OS.
In a further data set the test system is hChk2. The data set is described as follows: IR-dependent phosphorylation of hChk2 (immunoblot). In kind it is cell-based, human. To be noted: U2OS. An excerpt:
Recent findings point toward ATM as a critical upstream regulator of the activity of the checkpoint kinase, hChk2, in IR-damaged cells (Ahn et al., Cancer Res. 60:5934-5936 (2000); Melchionna et al., Nat. Cell Biol. 2:762-765 (2000)). To determine whether ATX was also involved in hChk2 activation, the effect of AS oligonucleotide treatment on the IR-dependent phosphorylation of hChk2 was examined. […] Moreover, the differential effects of AS treatment on p53 expression versus hChk2 activation argue against the possibility that AS exposure leads to nonspecific inhibition of checkpoint signaling responses to IR-induced DNA damage.

T1 sequence (Q96Q15 141-3661 S144C): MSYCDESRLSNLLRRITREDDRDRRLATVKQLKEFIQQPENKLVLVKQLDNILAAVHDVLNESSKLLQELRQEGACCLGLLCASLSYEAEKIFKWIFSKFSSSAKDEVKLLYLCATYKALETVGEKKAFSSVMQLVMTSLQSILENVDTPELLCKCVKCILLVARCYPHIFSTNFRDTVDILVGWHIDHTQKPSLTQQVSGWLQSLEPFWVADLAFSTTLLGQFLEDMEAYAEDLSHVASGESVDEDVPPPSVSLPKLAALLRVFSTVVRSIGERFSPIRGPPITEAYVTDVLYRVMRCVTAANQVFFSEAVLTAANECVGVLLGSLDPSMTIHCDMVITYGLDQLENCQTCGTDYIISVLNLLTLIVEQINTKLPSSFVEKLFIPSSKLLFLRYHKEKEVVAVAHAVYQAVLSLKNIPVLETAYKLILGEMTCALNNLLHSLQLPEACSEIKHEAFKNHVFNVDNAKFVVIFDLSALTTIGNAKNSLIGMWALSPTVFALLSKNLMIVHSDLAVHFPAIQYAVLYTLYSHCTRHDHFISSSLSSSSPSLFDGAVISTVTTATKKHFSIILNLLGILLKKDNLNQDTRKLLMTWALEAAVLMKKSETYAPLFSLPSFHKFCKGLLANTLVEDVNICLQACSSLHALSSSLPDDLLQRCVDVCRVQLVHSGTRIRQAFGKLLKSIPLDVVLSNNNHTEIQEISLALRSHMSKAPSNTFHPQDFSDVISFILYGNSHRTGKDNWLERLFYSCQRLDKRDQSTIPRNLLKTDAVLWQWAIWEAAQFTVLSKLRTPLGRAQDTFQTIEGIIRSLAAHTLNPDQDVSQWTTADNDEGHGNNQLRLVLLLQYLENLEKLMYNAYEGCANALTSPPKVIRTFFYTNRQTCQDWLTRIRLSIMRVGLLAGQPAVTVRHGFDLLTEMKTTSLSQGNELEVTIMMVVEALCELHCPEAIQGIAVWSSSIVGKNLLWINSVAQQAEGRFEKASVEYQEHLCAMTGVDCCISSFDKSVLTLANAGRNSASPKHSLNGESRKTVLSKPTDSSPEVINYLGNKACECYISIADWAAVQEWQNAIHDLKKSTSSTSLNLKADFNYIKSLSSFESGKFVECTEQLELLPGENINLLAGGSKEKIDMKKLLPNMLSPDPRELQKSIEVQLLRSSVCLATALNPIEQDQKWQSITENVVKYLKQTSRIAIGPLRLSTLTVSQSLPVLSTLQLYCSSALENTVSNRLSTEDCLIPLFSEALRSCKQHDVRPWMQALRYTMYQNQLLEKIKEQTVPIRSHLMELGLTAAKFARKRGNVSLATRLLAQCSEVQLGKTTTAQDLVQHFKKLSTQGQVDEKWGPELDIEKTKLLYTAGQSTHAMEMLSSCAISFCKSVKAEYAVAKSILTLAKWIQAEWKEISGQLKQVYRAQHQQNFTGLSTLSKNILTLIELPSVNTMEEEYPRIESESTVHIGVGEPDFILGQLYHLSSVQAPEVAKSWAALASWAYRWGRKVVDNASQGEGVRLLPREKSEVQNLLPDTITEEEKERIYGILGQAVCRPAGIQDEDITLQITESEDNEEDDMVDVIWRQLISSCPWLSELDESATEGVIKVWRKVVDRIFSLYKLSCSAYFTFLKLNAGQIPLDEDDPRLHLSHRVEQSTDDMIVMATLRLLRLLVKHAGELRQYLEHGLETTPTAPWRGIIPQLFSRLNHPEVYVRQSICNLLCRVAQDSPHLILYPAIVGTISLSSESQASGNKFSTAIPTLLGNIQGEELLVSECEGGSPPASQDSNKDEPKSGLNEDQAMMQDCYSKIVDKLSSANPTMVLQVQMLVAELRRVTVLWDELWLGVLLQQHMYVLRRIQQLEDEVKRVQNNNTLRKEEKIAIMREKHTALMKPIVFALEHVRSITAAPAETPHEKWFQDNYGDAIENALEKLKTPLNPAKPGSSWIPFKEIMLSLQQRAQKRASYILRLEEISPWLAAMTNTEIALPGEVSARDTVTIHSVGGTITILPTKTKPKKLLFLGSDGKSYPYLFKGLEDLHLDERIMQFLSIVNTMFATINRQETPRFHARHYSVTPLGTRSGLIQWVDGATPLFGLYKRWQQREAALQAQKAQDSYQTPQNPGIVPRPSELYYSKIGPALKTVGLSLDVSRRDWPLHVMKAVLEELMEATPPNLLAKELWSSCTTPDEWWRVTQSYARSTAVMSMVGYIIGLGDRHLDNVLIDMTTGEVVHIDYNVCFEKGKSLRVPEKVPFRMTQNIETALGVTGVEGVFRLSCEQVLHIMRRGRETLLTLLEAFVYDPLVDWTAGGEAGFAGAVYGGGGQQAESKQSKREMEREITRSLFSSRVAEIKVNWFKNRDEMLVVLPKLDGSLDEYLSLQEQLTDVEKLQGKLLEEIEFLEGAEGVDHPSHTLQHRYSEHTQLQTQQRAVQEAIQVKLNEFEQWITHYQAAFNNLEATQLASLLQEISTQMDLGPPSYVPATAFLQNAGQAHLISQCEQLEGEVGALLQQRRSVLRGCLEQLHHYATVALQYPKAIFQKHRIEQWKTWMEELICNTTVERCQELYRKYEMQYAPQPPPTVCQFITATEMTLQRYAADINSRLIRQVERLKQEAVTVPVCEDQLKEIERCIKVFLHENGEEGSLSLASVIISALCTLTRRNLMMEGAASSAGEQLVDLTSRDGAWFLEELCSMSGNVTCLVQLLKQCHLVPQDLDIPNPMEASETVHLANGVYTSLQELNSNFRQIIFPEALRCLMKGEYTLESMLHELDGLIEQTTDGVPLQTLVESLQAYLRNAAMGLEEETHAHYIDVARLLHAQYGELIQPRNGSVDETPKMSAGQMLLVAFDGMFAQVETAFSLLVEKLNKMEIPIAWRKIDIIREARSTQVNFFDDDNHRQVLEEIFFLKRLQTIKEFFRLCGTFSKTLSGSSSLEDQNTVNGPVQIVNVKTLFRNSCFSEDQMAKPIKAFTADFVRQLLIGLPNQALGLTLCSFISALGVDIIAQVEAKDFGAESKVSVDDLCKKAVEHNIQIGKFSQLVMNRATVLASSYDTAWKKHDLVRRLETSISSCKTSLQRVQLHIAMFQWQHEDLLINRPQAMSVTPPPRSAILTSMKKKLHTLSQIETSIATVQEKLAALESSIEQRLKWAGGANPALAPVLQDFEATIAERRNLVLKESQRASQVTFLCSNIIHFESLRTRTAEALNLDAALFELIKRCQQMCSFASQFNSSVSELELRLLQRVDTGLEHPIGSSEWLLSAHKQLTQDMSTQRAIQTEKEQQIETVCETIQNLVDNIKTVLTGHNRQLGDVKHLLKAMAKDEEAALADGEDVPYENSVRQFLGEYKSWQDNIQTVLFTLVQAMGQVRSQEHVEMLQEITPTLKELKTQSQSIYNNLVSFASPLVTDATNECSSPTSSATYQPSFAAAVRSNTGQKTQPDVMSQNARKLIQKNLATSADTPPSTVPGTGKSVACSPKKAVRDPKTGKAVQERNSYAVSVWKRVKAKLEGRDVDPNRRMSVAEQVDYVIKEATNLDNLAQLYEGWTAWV

Take `O=c1[nH]cc(F)c(=O)[nH]1` [5-FU, 5-fluorouracil, reference compound]: in the data set on p53 (U2OS treated with the drug), the “p53 Ser-15 phosphorylation” value was “not accompanied by an increase in Ser-15 phosphorylation” and the p53 expression result is on record as “increased p53 expression to levels similar to those observed in UV-irradiated cells”.

`COC[C@H]1OC(=O)c2coc3c2[C@@]1(C)C1=C(C3=O)[C@@H]2CCC(=O)[C@@]2(C)C[C@H]1OC(C)=O` [wortmannin]: the pIC50 at ATX [1] is 7.00 to 8.00.

Take “5′-GAGACAGGAGGGAGCTTGCT-3′ (all phosphorothioate, sugars by position and methylation of C not given here) [S oligonucleotide, reference compound]”: the “reduction of basal level of colony outgrowth (basal clonogenic activity)” value in the data set with U2OS cells [2] came to 25%. In addition, the “cell-cycle distribution after IR exposure” value in the data set with U2OS cells [3] was “accumulated in both G1 and G2/M phases”.

Take “5′-AGCAAGCTCCCTCCTGTCTC-3′ (phosphorothioate backbone, further chemistry not given here) [AS oligonucleotide, antisense phosphorothioate oligonucleotide complementary to ATX nucleotides 210-229]”: in the data set on U2OS cells [2] (IR (FIG. 2C) and UV), the “sensitivity to suppressive effects of IR and UV on clonogenic survival” value is recorded as “significantly more sensitive”. The “reduction of basal level of colony outgrowth (basal clonogenic activity)” value in the data set on U2OS cells [2] amounted to 75%. For the same compound, the “expression levels of control proteins ATM and PLC-γ1” value with ATX [4] (immunoblot) is on record as “no significant change”. The “reduction in ATX protein” value in the data set with ATX [4] (over 10 independent trials) is recorded as 50-90%. Besides, the “cell-cycle distribution after IR exposure” value in the data set with U2OS cells [3] is listed as “arrested primarily in G2/M phase”. Also, the “cell-cycle distribution in the absence of IR” value in the data set on U2OS cells [3] (compared to S oligonucleotide-treated cells) is “reduction in the percentage of G1 phase cells, and a concomitant accumulation of G2/M phase cells”. Moreover, the “IR-dependent phosphorylation of hChk2” value in the data set with hChk2 is reported as “retained the ability to phosphorylate hChk2”. In the data set on p53 (AS-treated U2OS versus S-treated), the “level of p53 induction by 5-FU” value is recorded as “identical to that observed in their S-treated counterparts”. The “stoichiometric increase in Ser-15 phosphorylation triggered by UV-induced stress” value with p53 (U2OS pretreated with proteasome inhibitor LLnV) was “effectively blocked”. The “phosphorylation and stabilization of p53 induced by IR exposure” value with p53 (U2OS, IR) is “reduced both the phosphorylation and stabilization of p53”. Also, the “Ser-15 phosphorylation and p53 protein accumulation in UV-damaged cells” value in the data set with p53 (U2OS, UV) is reported as “severely impaired”.
